Laboratory results as given in US20090111801A1, “SUBSTITUTED PYRAZINONE DERIVATIVES FOR USE AS A MEDICINE” (Janssen Pharmaceutica N.V., priority 2006, published 2009).

Key:
hα2A receptor = molecular target: T1, hα2A receptor (Homo sapiens, UniProt P08913); test: Radioligand binding experiment for α2A-adrenoceptor ([3H]raulwolscine, CHO cell membranes); settings: [3H]raulwolscine binding; for IC50: read-out: h-α2A pIC50 (converted)
T1 construct: expressed in transfected cells; host or cells: CHO cells, stably transfected; membrane preparation
T1 sequence (P08913 1-465): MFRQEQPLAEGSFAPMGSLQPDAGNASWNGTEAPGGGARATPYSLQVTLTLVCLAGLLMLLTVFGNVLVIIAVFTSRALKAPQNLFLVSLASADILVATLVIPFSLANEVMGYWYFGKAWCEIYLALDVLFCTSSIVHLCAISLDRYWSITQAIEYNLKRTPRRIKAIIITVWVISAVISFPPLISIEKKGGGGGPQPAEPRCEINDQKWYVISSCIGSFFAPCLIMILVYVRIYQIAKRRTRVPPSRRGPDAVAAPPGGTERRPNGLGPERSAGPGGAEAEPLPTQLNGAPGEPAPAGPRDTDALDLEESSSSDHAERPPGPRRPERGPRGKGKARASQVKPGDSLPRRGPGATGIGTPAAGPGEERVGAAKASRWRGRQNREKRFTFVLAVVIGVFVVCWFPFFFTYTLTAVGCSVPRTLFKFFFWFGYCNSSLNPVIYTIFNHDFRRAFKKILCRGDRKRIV

hα2C receptor = molecular target: T2, hα2C receptor (Homo sapiens, UniProt P18825); test: Radioligand binding experiment for α2C-adrenoceptor ([3H]raulwolscine, CHO cell membranes); settings: [3H]raulwolscine binding; for IC50: read-out: h-α2C pIC50 (converted)
T2 construct: expressed in transfected cells; host or cells: CHO cells, stably transfected; membrane preparation
T2 sequence (P18825 1-462): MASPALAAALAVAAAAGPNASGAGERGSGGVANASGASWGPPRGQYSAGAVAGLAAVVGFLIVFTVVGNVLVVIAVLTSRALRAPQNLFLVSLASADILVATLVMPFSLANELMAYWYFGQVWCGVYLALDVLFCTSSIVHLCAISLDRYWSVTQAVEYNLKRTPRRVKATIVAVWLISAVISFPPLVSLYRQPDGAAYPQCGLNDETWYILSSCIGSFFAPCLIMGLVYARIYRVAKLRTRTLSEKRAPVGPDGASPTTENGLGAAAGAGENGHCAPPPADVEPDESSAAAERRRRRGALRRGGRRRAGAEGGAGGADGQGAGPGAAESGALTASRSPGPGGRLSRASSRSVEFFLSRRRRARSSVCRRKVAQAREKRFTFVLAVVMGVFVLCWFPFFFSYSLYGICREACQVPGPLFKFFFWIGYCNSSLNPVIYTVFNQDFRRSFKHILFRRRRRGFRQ

5HT-Transporter = molecular target: T3, 5HT-Transporter (Homo sapiens, UniProt P31645); test: Binding experiment for the 5HT-transporter ([3H]paroxetine, human platelet membranes); settings: [3H]paroxetine 0.5 nM; for IC50: read-out: h-5HTT pIC50 (converted)
T3 construct: Human platelet membranes (Oceanix Biosciences Corporation, Hanover, Md., USA) were thawed; tissue Oceanix Biosciences Corporation, Hanover, Md., USA; host or cells: human platelet membranes
Outline: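 Competition binding of [3H]paroxetine to human platelet membranes in Tris-HCl 50 mM, 120 mM NaCl, 5 mM KCl, with filtration and scintillation counting.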

T3 sequence (P31645 whole entry): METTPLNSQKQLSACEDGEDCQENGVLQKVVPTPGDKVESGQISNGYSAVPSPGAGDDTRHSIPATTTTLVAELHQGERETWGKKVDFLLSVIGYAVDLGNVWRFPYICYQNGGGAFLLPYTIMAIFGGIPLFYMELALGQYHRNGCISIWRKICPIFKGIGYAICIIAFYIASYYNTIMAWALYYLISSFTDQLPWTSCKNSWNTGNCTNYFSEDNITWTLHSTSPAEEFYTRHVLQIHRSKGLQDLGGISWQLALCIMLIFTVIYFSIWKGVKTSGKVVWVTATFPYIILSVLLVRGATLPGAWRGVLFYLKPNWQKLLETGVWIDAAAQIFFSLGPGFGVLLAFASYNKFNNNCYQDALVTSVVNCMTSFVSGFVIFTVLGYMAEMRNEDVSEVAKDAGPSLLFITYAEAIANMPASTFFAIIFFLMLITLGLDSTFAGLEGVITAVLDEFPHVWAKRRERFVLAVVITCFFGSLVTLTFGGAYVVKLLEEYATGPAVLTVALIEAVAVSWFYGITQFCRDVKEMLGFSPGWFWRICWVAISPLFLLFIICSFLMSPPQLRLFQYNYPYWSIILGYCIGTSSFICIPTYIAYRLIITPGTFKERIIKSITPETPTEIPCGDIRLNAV

Compound	h-α2A pIC50 (hα2A receptor)	h-α2C pIC50 (hα2C receptor)	h-5HTT pIC50 (5HT-Transporter)	IC50 (hα2A receptor)	IC50 (hα2C receptor)	IC50 (5HT-Transporter)
C/C(=C\c1ccccc1)CN1CCC(Nc2nccn(-c3cccc(CNCCN4CCOCC4)c3)c2=O)CC1 [1-149]	7.6	8.4	5.5	–	–	–
C/C(=C\c1ccccc1)CN1CCC(Nc2nccn(-c3ccc(CNCCN4CCOCC4)cc3)c2=O)CC1 [1-150]	–	–	–	100 nM	3.98 nM	794 nM
C/C(=C\c1ccccc1)CN1CCC(Nc2nccn(CC(=O)N(CCN3CCOCC3)Cc3ccc(F)cc3)c2=O)CC1 [1-151]	–	–	–	126 nM	2 nM	1260 nM
C/C(=C\c1ccccc1)CN1CCC(Nc2nccn(-c3ccc(CNC(=O)c4ccno4)cc3)c2=O)CC1 [1-153]	6.9	8.9	6.1	–	–	–
C/C(=C\c1ccccc1)CN1CCC(Nc2nccn(Cc3ccc(CNC(=O)c4ccncc4)cc3)c2=O)CC1 [1-154]	–	–	–	126 nM	39.8 nM	398 nM
C/C(=C\c1ccccc1)CN1CCC(Nc2nccn(CCCNS(C)(=O)=O)c2=O)CC1 [1-155]	–	–	–	200 nM	20 nM	1260 nM
C/C(=C\c1ccccc1)CN1CCC(Nc2nccn(Cc3ccc(CNS(C)(=O)=O)cc3)c2=O)CC1 [1-156]	–	–	–	158 nM	31.6 nM	1260 nM
CCCCS(=O)(=O)NCc1ccc(Cn2ccnc(NC3CCN(C/C(C)=C/c4ccccc4)CC3)c2=O)cc1 [1-157]	–	–	–	251 nM	50.1 nM	1000 nM
C/C(=C\c1ccccc1)CN1CCC(Nc2nccn(CCCNS(=O)(=O)c3ccccc3)c2=O)CC1 [1-158]	–	–	–	100 nM	6.31 nM	158 nM
C/C(=C\c1ccccc1)CN1CCC(Nc2nccn(CCCN(C)S(=O)(=O)c3ccccc3)c2=O)CC1 [1-160]	–	–	–	158 nM	12.6 nM	501 nM
C/C(=C\c1ccccc1)CN1CCC(Nc2nccn(Cc3ccc(CNS(=O)(=O)c4ccc(C#N)cc4)cc3)c2=O)CC1 [1-161]	–	–	–	100 nM	25.1 nM	501 nM
C/C(=C\c1ccccc1)CN1CCC(Nc2nccn(Cc3ccc(CNS(=O)(=O)c4ccc(F)cc4)cc3)c2=O)CC1 [1-162]	–	–	–	100 nM	20 nM	316 nM
C/C(=C\c1ccccc1)CN1CCC(Nc2nccn(Cc3ccc(CNS(=O)(=O)c4ccc(C(F)(F)F)cc4)cc3)c2=O)CC1 [1-163]	–	–	–	158 nM	39.8 nM	794 nM
CC(=O)Nc1ccc(S(=O)(=O)NCc2ccc(Cn3ccnc(NC4CCN(C/C(C)=C/c5ccccc5)CC4)c3=O)cc2)cc1 [1-164]	–	–	–	158 nM	20 nM	501 nM
C/C(=C\c1ccccc1)CN1CCC(Nc2nccn(-c3cccc(NS(=O)(=O)Cc4ccccc4)c3)c2=O)CC1 [1-166]	–	–	–	63.1 nM	12.6 nM	316 nM
C/C(=C\c1ccccc1)CN1CCC(Nc2nccn(Cc3ccc(CNS(=O)(=O)/C=C/c4ccccc4)cc3)c2=O)CC1 [1-167]	–	–	–	200 nM	39.8 nM	631 nM
C/C(=C\c1ccccc1)CN1CCC(Nc2nccn(CCCN(c3ccccc3)S(=O)(=O)c3ccccc3)c2=O)CC1 [1-168]	–	–	–	158 nM	10 nM	200 nM
C/C(=C\c1ccccc1)CN1CCC(Nc2nccn(CCCN(Cc3ccccc3)S(C)(=O)=O)c2=O)CC1 [1-169]	–	–	–	200 nM	10 nM	316 nM
C/C(=C\c1ccccc1)CN1CCC(Nc2nccn(CCCN(Cc3ccccc3)S(=O)(=O)c3ccccc3)c2=O)CC1 [1-170]	–	–	–	200 nM	12.6 nM	251 nM
C/C(=C\c1ccccc1)CN1CCC(Nc2nccn(Cc3ccc(CNS(=O)(=O)c4c(C)noc4C)cc3)c2=O)CC1 [1-171]	–	–	–	158 nM	20 nM	794 nM

Now from value to compound:

h-α2A pIC50 (hα2A receptor)	h-α2C pIC50 (hα2C receptor)	h-5HTT pIC50 (5HT-Transporter)	IC50 (hα2A receptor)	IC50 (hα2C receptor)	IC50 (5HT-Transporter)	Compound
–	–	–	31.6 nM	39.8 nM	1260 nM	C/C(=C\c1ccccc1)CN1CCC(Nc2nccn(CC(=O)c3ccc(N4CCCC4)cc3)c2=O)CC1 [2-1]
–	–	–	63.1 nM	5.01 nM	398 nM	C/C(=C\c1ccccc1)CN1CCC(Nc2nccn(-c3ccc(C(=O)N4CCC(N(C)C)C4)cc3)c2=O)CC1 (stereo not drawn) [2-2]
–	–	–	63.1 nM	6.31 nM	3160 nM	C/C(=C\c1ccccc1)CN1CCC(Nc2nccn(CCN3CCCCC3)c2=O)CC1 [2-3]
–	–	–	3.98 nM	2.51 nM	316 nM	C/C(=C\c1ccccc1)CN1CCC(Nc2nccn(-c3cccc(N4CCCCC4)c3)c2=O)CC1 [2-6]
–	–	–	50.1 nM	5.01 nM	1260 nM	C/C(=C\c1ccccc1)CN1CCC(Nc2nccn(-c3ccc(N4CCCCC4)cc3)c2=O)CC1 [2-7]
–	–	–	39.8 nM	10 nM	501 nM	C/C(=C\c1ccccc1)CN1CCC(Nc2nccn(-c3ccc(N4CCCCC4)cc3)c2=O)CC1 [2-8]
–	–	–	0.631 nM	0.2 nM	200 nM	C/C(=C\c1ccccc1)CN1CCC(Nc2nccn(-c3cccc(CN4CCCCC4)c3)c2=O)CC1 [2-9]
–	–	–	31.6 nM	1.58 nM	251 nM	C/C(=C\c1ccccc1)CN1CCC(Nc2nccn(-c3ccc(CN4CCCCC4)cc3)c2=O)CC1 [2-10]
–	–	–	63.1 nM	6.31 nM	501 nM	C/C(=C\c1ccccc1)CN1CCC(Nc2nccn(-c3ccc(C(=O)N4CCC(C)CC4)cc3)c2=O)CC1 [2-11]
–	–	–	63.1 nM	3.98 nM	2000 nM	C/C(=C\c1ccccc1)CN1CCC(Nc2nccn(CC(=O)N3CCC(C(F)(F)F)CC3)c2=O)CC1 [2-12]
–	–	–	100 nM	5.01 nM	251 nM	C/C(=C\c1ccccc1)CN1CCC(Nc2nccn(CC(=O)N3CCC(Cc4ccccc4)CC3)c2=O)CC1 [2-13]
–	–	–	126 nM	7.94 nM	5010 nM	C/C(=C\c1ccccc1)CN1CCC(Nc2nccn(CC(=O)N3CCC(O)(c4ccccc4)CC3)c2=O)CC1 [2-14]
–	–	–	126 nM	3.98 nM	3980 nM	COC(=O)C1CCN(C(=O)Cn2ccnc(NC3CCN(C/C(C)=C/c4ccccc4)CC3)c2=O)CC1 [2-15]
–	–	–	50.1 nM	5.01 nM	501 nM	COC(=O)C1CCN(C(=O)c2ccc(-n3ccnc(NC4CCN(C/C(C)=C/c5ccccc5)CC4)c3=O)cc2)CC1 [2-16]
–	–	–	25.1 nM	1.58 nM	2000 nM	C/C(=C\c1ccccc1)CN1CCC(Nc2nccn(CC(=O)N3CCC(N4CCCC4)CC3)c2=O)CC1 [2-17]
–	–	–	12.6 nM	1.26 nM	794 nM	C/C(=C\c1ccccc1)CN1CCC(Nc2nccn(-c3cccc(N4CCC(N5CCCC5)CC4)c3)c2=O)CC1 [2-18]
–	–	–	50.1 nM	5.01 nM	631 nM	C/C(=C\c1ccccc1)CN1CCC(Nc2nccn(-c3ccc(N4CCC(N5CCCC5)CC4)cc3)c2=O)CC1 [2-19]
–	–	–	63.1 nM	3.16 nM	2510 nM	C/C(=C\c1ccccc1)CN1CCC(Nc2nccn(CC(=O)N3CCN(C)CC3)c2=O)CC1 [2-20]
–	–	–	100 nM	10 nM	501 nM	C/C(=C\c1ccccc1)CN1CCC(Nc2nccn(-c3ccc(C(=O)N4CCN(C)CC4)cc3)c2=O)CC1 [2-21]
–	–	–	126 nM	25.1 nM	> 10000 nM	CC(=O)N1CCN(C(=O)Cn2ccnc(NC3CCN(C/C(C)=C/c4ccccc4)CC3)c2=O)CC1 [2-22]
6.1	7.4	5.1	–	–	–	CC(=O)N1CCN(Cc2ccc(-n3ccnc(NC4CCN(C/C(C)=C/c5ccccc5)CC4)c3=O)cc2)CC1 [2-23]
–	–	–	100 nM	3.16 nM	5010 nM	C=CCN1CCN(C(=O)Cn2ccnc(NC3CCN(C/C(C)=C/c4ccccc4)CC3)c2=O)CC1 [2-24]
–	–	–	126 nM	7.94 nM	501 nM	C=CCN1CCN(C(=O)c2ccc(-n3ccnc(NC4CCN(C/C(C)=C/c5ccccc5)CC4)c3=O)cc2)CC1 [2-25]
–	–	–	126 nM	7.94 nM	794 nM	C/C(=C\c1ccccc1)CN1CCC(Nc2nccn(CC(=O)N3CCN(c4ccccc4)CC3)c2=O)CC1 [2-26]
